Experiments:
[1] = in vivo; cited from earlier work
ENaC = assay: Ocular surface potential difference (OSPD), amiloride-induced depolarization; format: in vivo, mouse; conditions: topical, 100 μM amiloride, 0-30 μM cinacalcet in all solutions
Description: (§1) Using pharmacological activators and inhibitors, OSPD allows studying activities of various ion channels/transporters in the ocular surface.^12 In these studies, baseline OSPD is established using a high Cl^− solution that mimics the tear film. OSPD changes induced by amiloride (ENaC inhibitor) indicates Na^+ transport via ENaC. Similarly, OSPD changes induced by forskolin (cAMP agonist) and CFTRinh-172 (CFTR inhibitor) indicates Cl^− secretion via cAMP-activated Cl^− channels and particularly CFTR. Lastly, OSPD changes induced by Ca^2+ agonist ATP indicates Cl^− secretion mediated by CaCCs. […]
(§2) Ocular surface potential difference (OSPD) and tear fluid volume measurements were performed in mice with topically applied cinacalcet (CaSR activator) and NPS-2143 (CaSR inhibitor). […] As described previously,^12,14,15 open-circuit transepithelial potential differences were measured in response to serial perfusions of different isoosmolar (310 mOsm/kg H2O) solutions over the ocular surface at 5-10 ml/min. […] Each solution was perfused onto the ocular surface using a gravity perfusion system (ALA Scientific; Farmingdale, NY, USA) for 1-3 minutes until a stable OSPD reading was obtained.

CFTR = assay: Ocular surface potential difference (OSPD), forskolin / CFTRinh-172 responses; format: in vivo, mouse
Description: Using pharmacological activators and inhibitors, OSPD allows studying activities of various ion channels/transporters in the ocular surface.^12 In these studies, baseline OSPD is established using a high Cl^− solution that mimics the tear film. OSPD changes induced by amiloride (ENaC inhibitor) indicates Na^+ transport via ENaC. Similarly, OSPD changes induced by forskolin (cAMP agonist) and CFTRinh-172 (CFTR inhibitor) indicates Cl^− secretion via cAMP-activated Cl^− channels and particularly CFTR. Lastly, OSPD changes induced by Ca^2+ agonist ATP indicates Cl^− secretion mediated by CaCCs.
Sequential perfusion of the ocular surface with solutions containing amiloride (ENaC inhibitor), forskolin (cAMP agonist), CFTRinh-172 (CFTR inhibitor), and ATP (Ca^2+ agonist) thus allows determining activities of ENaC, CFTR, and CaCC ion channels, respectively (FIG. 4A).
The compositions of perfusion solutions follow the solutions used in the standardized human nasal and ocular potential difference protocol.^12,13 Solutions #1-3 (high Cl^−, amiloride, and low Cl^−, respectively) were made in 1-liter batches, pH balanced to 7.4, and filtered in a sterile environment prior to refrigeration and used within 3 months. Solution #1 (high Cl^−) contained 1 L Ringer's injection (containing 147 mM NaCl, 2 mM CaCl2), 4 mM KCl, 2.4 mM K2HPO4, 0.4 mM KH2PO4, and 1.2 mM MgCl2. 100 μM amiloride was added to Solution #1 to create Solution #2 (amiloride). Solution #3 (low Cl^−) was identical to Solution #1, except NaCl was replaced with sodium gluconate. Cinacalcet (CaSR agonist) and NPS-2143 (CaSR antagonist) were purchased from Tocris Bioscience (Minneapolis, MN, USA). All other chemicals were purchased from Sigma-Aldrich (St. Louis, MO, USA).
Ocular surface potential difference (OSPD) and tear fluid volume measurements were performed in mice with topically applied cinacalcet (CaSR activator) and NPS-2143 (CaSR inhibitor). Mice were anesthetized with isoflurane and body temperature was maintained at 37° C. via a heating pad. As described previously,^12,14,15 open-circuit transepithelial potential differences were measured in response to serial perfusions of different isoosmolar (310 mOsm/kg H2O) solutions over the ocular surface at 5-10 ml/min. The measuring electrode was in contact with the perfusion catheter which was carefully positioned using a three-axis micromanipulator directly above the mouse ocular surface and the reference electrode was grounded via a 23-gauge butterfly needle agar bridge inserted subcutaneously in the back. Measuring and reference electrodes consisted of Ag/AgCl with 3 M KCl agar bridges, and both electrodes were connected to an ISO-Z headstage, BMA-200 high-impedance amplifier/voltmeter, and PowerLab analog-to-digital converter (ADInstruments; Colorado Springs, CO, USA) connected to a computer (FIG. 1). Each solution was perfused onto the ocular surface using a gravity perfusion system (ALA Scientific; Farmingdale, NY, USA) for 1-3 minutes until a stable OSPD reading was obtained.

CaCC = assay: Ocular surface potential difference (OSPD), ATP-induced hyperpolarization; format: in vivo, mouse
Description: as §1, §2

mouse ocular surface = assay: Baseline ocular surface potential difference (OSPD); format: in vivo; conditions: topically administered, mice
Description: as §1, §2

[2] = Tear fluid volume by endodontic absorbent paper point tear test (EAPPTT); format: in vivo, BALB/c mice; conditions: for EAPPTT wetting length: 0.001% single 10 μL dose, baseline 2.3±0.2 mm
Procedure: […] All mice were kept at ambient conditions (approximately 50% humidity and 21° C.) and provided unrestricted access to food and water.

O=c1ccn([C@@H]2O[C@H](COP(=O)(O)OP(=O)(O)OP(=O)(O)OP(=O)(O)OC[C@H]3O[C@@H](n4ccc(=O)[nH]c4=O)[C@H](O)[C@@H]3O)[C@@H](O)[C@H]2O)c(=O)[nH]1 [diquafosol]
outcome of clinical trials for DED [1]: did not meet the primary endpoints

C[C@@H](NCCCc1cccc(C(F)(F)F)c1)c1cccc2ccccc12 [cinacalcet]
effect on ENaC activity / Na+ absorption mediated by ENaC (amiloride-induced depolarization) (ENaC): no effect | lower CFTRinh-172 response (CFTR activity) (CFTR; at 30 μM, 10 μM CFTRinh-172, FIG. 4E): up to 90% | lower forskolin response (CFTR activity) (CFTR; at 30 μM, 10 μM forskolin, FIG. 4D): up to 90% | inhibition of forskolin-induced Cl− secretion and CFTR activity (CFTR; at 30 μM, concentration-dependent, topical, mice): up to 90% | inhibition of ATP response (CaCC; 30 μM cinacalcet, 100 μM ATP, without prior forskolin and CFTRinh-172, FIG. 5): ~50% | lower ATP-induced hyperpolarization (CaCC activity) (CaCC; 100 μM ATP added after forskolin and CFTRinh-172, FIG. 4F): 90% | effect on baseline OSPD (mouse ocular surface): no effect

CC(C)(Cc1ccc2ccccc2c1)NC[C@@H](O)COc1cccc(Cl)c1C#N [NPS-2143, 2-chloro-6-[(2R)-3-([1,1-dimethyl-2-(2-naphthalenyl)ethyl]amino)-2-hydroxypropoxy]benzonitrile]
increased tear fluid volume ([2]; 0.001% or 30 μM, single 10 μL dose, 15 minutes after treatment): 60% | EAPPTT wetting length ([2]; 15 minutes after administration, mean±SEM): 3.6±0.2 mm | EAPPTT wetting length ([2]; 8 hours after administration): 3.6±0.2 mm | reversibility of effect on tear volume ([2]; 24 h after treatment): return of tear volume to near baseline values | increase of tear fluid volume ([2]; single dose topical 0.001% or 30 μM, for at least eight hours): > 60% | reversal of response by CFTR inhibitor CFTRinh-172 (CFTR; 30 μM, 10 μM CFTRinh-172): partially reversed | hyperpolarization relative to subsequently applied maximal forskolin-induced hyperpolarization (CFTR; 30 μM, 10 μM forskolin): 70% | hyperpolarization (OSPD change) (CFTR; perfusion of ocular surface with 30 μM): −13 mV

From patent publication US20240408005A1, “USE OF CALCIUM SENSING RECEPTOR ANTAGONISTS FOR TREATING OCULAR DISORDERS” (The Regents of the University of California, priority 2023, published 2024)
